Literature values, collected in US20240374563A1, “ANTICHOLINERGIC COMPOUNDS FOR USE IN TREATING NEUROMUSCULAR DISORDERS” (UNIVERSITY OF MONTRÉAL, priority 2022, published 2024).

Tested on: ALS patients
Conditions: cited from earlier work

## Nc1nc2ccc(OC(F)(F)F)cc2s1 [Riluzole]
  share of ALS patients who benefit: 20%
